# Publication PMC7139703, “Thiopurine Derivative-Induced Fpg/Nei DNA Glycosylase Inhibition: Structural, Dynamic and Functional Insights” (International Journal of Molecular Sciences, 2020)
# Where two headings read alike, the source gives them in different places.
# Assays:
# mvNei1 = molecular target: T1, mvNei1 (Acanthamoeba polyphaga mimivirus, UniProt Q5UQ00); test: mvNei1 DNA glycosylase/AP lyase activity assay on DHU:G 24-mer duplex; type: biochemical; settings: for effect on mvNei1 catalytic activity: 0.2 mM compound
# T1 construct: 6His (C); made in house; host or cells: E. coli Rosetta2 (DE3)
# T1 sequence (Q5UQ00 whole entry): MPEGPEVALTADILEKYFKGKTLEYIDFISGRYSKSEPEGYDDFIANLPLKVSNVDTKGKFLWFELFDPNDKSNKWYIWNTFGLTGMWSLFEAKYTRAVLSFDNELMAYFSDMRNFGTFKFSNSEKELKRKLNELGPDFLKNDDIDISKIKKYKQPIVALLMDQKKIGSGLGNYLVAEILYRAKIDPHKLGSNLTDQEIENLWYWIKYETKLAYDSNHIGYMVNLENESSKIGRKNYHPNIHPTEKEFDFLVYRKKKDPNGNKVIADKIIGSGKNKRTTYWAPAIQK
# Procedure: Figure 4 Comparative analysis of the effect of 2TX and TXn on Fpg/Nei DNA glycosylases. Enzyme activities were measured as described in the Figure 1 legend using […] of a 5′-[^32P]-24-mer DNA duplex containing either an 8-oxoG opposite C for LlFpg or a […] (DHU) opposite G for hNeil1 and mvNei1. The DNA probe was incubated with the indicated protein concentration and 0.2 mM TXn compounds in the presence or absence of 1 mM dithiothreitol (DTT) and TCEP (a representative experiment is illustrated by the upper histograms). The DNA probe for EMSA was 0.1 nM of 5′-[^32P]-[…] DNA duplex containing THF with LlFpg and mvNei1 (bottom panels: gel autoradiography) with the indicated conditions and as described in ‘Materials and Methods’.
# Fpg, hNeil1 and mvNei1 are bifunctional DNA glycosylases associated with concerted DNA glycosylase activity (cleavage of the N-glycosidic bond between the base lesion and the C1′ of the deoxyribose) and AP lyase activity that comprises the successive cleavage of the phosphodiester bonds at the 3′ and 5′ of the resulting abasic (AP) site, respectively (β, δ-elimination). Thus, AP sites that result from the excision of the damaged base are quantitatively converted into one nucleoside gap by these enzymes. The DNA glycosylase/AP lyase activity of each enzyme was measured by incubating 20 nM of 24-mer DNA duplexes ([OG:C] and [DHU:G] for Fpg and hNeil1/mvNei1, respectively) 5′-labeling on the damaged strand (see above) with 2 nM of Fpg, or mvNei1 for 15 min or, with 20 nM of hNeil1 for 30 min at 37 °C in 10 mM Tris-HCl, pH 7.6, 150 mM NaCl, 1 mM EDTA, 0.1 mg/mL BSA and 8% DMSO. The reaction was stopped by the addition of 1 volume of formamide loading buffer (96% formamide, 20 mM Tris/HCl pH 8.0 and 2 mM Na2EDTA), heated at 80 °C for 2 min and then analyzed by 20% Urea-PAGE, as previously described. […] Under these conditions, only 50% of the substrate is converted to the cleavage product (limiting enzyme concentration conditions). For an initial evaluation of the inhibitory effect, 40 µM of 2TX/TXn was used. The thio-compound was added to the reaction mixture before the final addition of the enzyme (competition condition). For the best identified inhibitors, a dose-response curve was generated and IC50^A determined (Figure 1 and Table 1).
# LlFpg/DNA complex C1 = molecular target: T2, LlFpg/DNA complex C1 (Lactococcus lactis subsp. cremoris, UniProt P42371); test: EMSA, Fpg DNA binding to 14-mer [THF:C] duplex, complex C1 (lesion recognition complex, Fpg/DNA 1/1); settings: for IC50: 0.1 nM 14-mer [THF:C], preformed complex; for IC50 / number of TXn equivalents per one protein equivalent for 50% inhibition of DNA binding activity, C1: 0.25 nM Fpg; for effect on stability of complex C1 in the presence of TCEP: [1/1] molar ratio TCEP/compound (1 mM each), Figure S6; for number of TXn equivalents per one protein equivalent for 50% inhibition of DNA binding activity, C1: value in parentheses
# T2 construct: made in house; host or cells: E. coli BH540 (fpg defective)
# T2 sequence (P42371 2-273, one chain of several): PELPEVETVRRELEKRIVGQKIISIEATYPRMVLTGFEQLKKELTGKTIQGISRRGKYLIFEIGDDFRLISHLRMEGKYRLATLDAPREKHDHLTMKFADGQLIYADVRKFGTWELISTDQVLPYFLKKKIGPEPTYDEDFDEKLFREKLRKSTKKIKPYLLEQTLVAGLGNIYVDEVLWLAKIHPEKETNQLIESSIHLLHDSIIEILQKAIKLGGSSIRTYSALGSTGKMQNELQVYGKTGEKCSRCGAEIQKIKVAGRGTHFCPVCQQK
# Text: To complement this study, we examined the effect of TXn on the binding of Fpg to a short DNA duplex containing a tetrahydrofuran (THF), a non-cleavable AP site analog. The enzyme specifically recognizes THF and forms a stable abortive complex with DNA [18, 34, 35, 36]. […] A representative titration experiment (with and without TCEP) of the 14-mer [THF:C] Fpg formed two stable complexes with this short DNA probe that were easily observed by EMSA: a high-affinity complex C1 corresponding to the lesion recognition complex (LRC), with nanomolar affinity, and a complex C2 only observed at higher Fpg concentrations. C2 results in C1 titration by a second Fpg molecule. This finding illustrates that the crystal structure of Fpg bound to 8-oxoG-carbanucleotide-containing DNA [38] (Figure S5). The stability of each preformed complex was then examined by EMSA in the presence of 2TX or TXn. […] The enzyme inactivation mediated by 2TX through ZnF oxidation that directly affects the DNA binding properties of the enzyme is also in agreement with this last observation.
# Figure 2 The effect of 2TX and TXn on Fpg DNA binding to abasic site-containing DNA. A 14-mer DNA duplex containing a tetrahydrofurane (THF) site as an abasic site analog was incubated with a limiting Fpg concentration (0.25 nM) with and without increasing concentrations of TXn. Incubation mixtures were then analyzed by electrophoretic mobility shift assay (EMSA), as described in the ‘Materials and Methods’. (a) Titration experiments with (+) and without (-) 2 mM tris(2-carboxyethyl)phosphine hydrochloride (TCEP) C1 and C2 are for the [1/1] and [2/1] Fpg/DNA complexes, respectively (see detailed in the text). (b) Fpg DNA binding concentration-dependence for 2TX and the more efficient TXn inhibitors. A representative EMSA autoradiography with 0.25 nM of Fpg alone (lane no) and 0.5, 2.5, 5, 10, 20, 40, 50, 250, 1000 µM is shown in the upper panel. IC50app^B corresponds to the TXn amount needed to halve the C1 complex formation and was extracted from the dose-response curves (lower panel; Table 1).
# The DNA binding activity was measured using EMSA [37]. Briefly, 0.1 nM of the 5′-labeled 14-mer [THF:C] (see above) was incubated with the enzyme at 4 °C for 30 min in 25 mM HEPES/NaOH (pH 7.5), 150 mM NaCl, 5% glycerol, 0.1 mg/mL BSA and 8% DMSO. The incubation mixture was then loaded onto a native 10% polyacrylamide gel (Acryl/Bis 19/1) and electrophoresed at 25 V/cm for 90 min at 4 °C. After electrophoresis, the gels were dried and exposed overnight for autoradiography using a Typhoon imager and quantified with ImageQuant software. To evaluate the inhibitor effect of 2TX/TXn on the DNA binding activity of each Fpg/Nei enzyme, we first determined the experimental conditions required to bind 50% of the DNA probes without an inhibitor in the presence of 8% DMSO (limiting enzyme concentration). Under these conditions, we obtained the half-maximal DNA binding 0.25, 7 and 5 nM of Fpg, hNeil1 and mvNei1. We used this limited enzyme concentrations to evaluate the inhibitor effect of 2TX/TXn on the enzyme DNA binding activity. This effect was determined by the addition of the thio-compound in the pre-equilibrium mixture of the enzyme and DNA probe (30 min) and incubated for an additional 30 min at 4 °C. For the best inhibitors of Fpg, a dose-response curve was established from at least three independent experiments and the IC50 was determined (IC50^B, Table 1).
# [1] = catalytic activity at 37 °C, compound stock in DMSO, DHU:G 24-mer, read-out: IC50app^A (Fpg/Nei enzyme catalysis) mvNEI1
# [2] = DNA binding at 4 °C, read-out: IC50app^B (Fpg DNA binding) C1
# [3] = IC50app^B (Fpg DNA binding) C1, DNA binding at 4 °C
Compound,effect on mvNei1 catalytic activity (mvNei1; Figure 4),IC50 (mvNei1; [1]),IC50 (LlFpg/DNA complex C1; [2]),effect on stability of complex C1 in the presence of TCEP (LlFpg/DNA complex C1),"number of TXn equivalents per one protein equivalent for 50% inhibition of DNA binding activity, C1 (LlFpg/DNA complex C1)",IC50 (mvNei1),IC50 (LlFpg/DNA complex C1; [3]),"inhibition of mvNei1 DNA binding and catalytic activities in the presence of TCEP (mvNei1; 1 mM TCEP (DTT to a lesser extent), Figure 4)"
"O=c1[nH]c(=S)[nH]c2nc[nH]c12 [Compound 2TX, 2-thioxanthine, reference compound]",did not significantly affect,> 500 µM,113 ± 17 µM,,,,,
"FC(F)(F)c1nc(S)c2nc[nH]c2n1 [TX13, 2-trifluoromethyl-6-thiopurine]",,> 500 µM,6.1 ± 0.5 µM,remained stable,98,,,
"O=c1[nH]c2[nH]c(=S)[nH]c(=O)c2[nH]1 [TX14, 2-thio-6,8-dioxopurine]",,,,,100,> 500 µM,25.1 ± 2.4 µM,
O=c1[nH]c(=S)[nH]c2[nH]c(=S)[nH]c12 [TX19],apparent inhibitory effects,124 ± 4 µM,17.1 ± 2.4 µM,,68,,,suppressed
Nc1ncnc2[nH]c(S)nc12 [TX27],,,,remained stable,177,277 ± 18 µM,44.2 ± 8 µM,
